According to ChEMBL document CHEMBL3853271, “Recent progress towards an effective treatment of amyotrophic lateral sclerosis using the SOD1 mouse model in a preclinical setting” (2016):

Key:
Mus musculus [1] = experiment: Neuroprotective activity in transgenic mouse amyotrophic lateral sclerosis model harboring human SOD1 H46R mutant assessed as increase in survival rate at 0.1 mg/kg, ig administered daily starting at day of disease onset until disease end stage relative to control; type: functional
Mus musculus [2] = experiment: (§1) Neuroprotective activity in transgenic mouse amyotrophic lateral sclerosis model harboring human SOD1 H46R mutant assessed as increase in survival rate at 0.5 mg/kg, ig administered daily starting at day of disease onset until disease end stage relative to control; type: functional
Mus musculus [3] = experiment: as §1, with “ChAT-positive motor neurons loss” for “increase”, “anterior horn” for “survival rate”, “by immunostaining method (reference value: 43%)” for “relative to control”; type: functional
Mus musculus [4] = experiment: (§2) Neuroprotective activity in transgenic mouse amyotrophic lateral sclerosis model harboring SOD1 G94A mutant assessed as prolongation of survival at 10 ug/kg, administered through gastric tube daily started between day 88 to 106 of disease onset until disease end stage relative to control; type: functional
Mus musculus [5] = experiment: as §2, with “harboring human” for “harboring”, “H46R” for “G94A”, “1 to 100” for “10”, “121” for “88”, “130” for “106”; type: functional, Stomach
Mus musculus [6] = experiment: Neuroprotective activity in transgenic mouse amyotrophic lateral sclerosis model harboring SOD1 G93A mutant assessed as increase in survival rate at 60 mg/kg, administered via oral gavage started from first day of symptomatic onset until disease end stage relative to control; type: functional
Mus musculus [7] = experiment: (§3) Neuroprotective activity in transgenic mouse amyotrophic lateral sclerosis model harboring SOD1 G93A mutant assessed as death of motor neurons in lumbar spinal cord at 10 mg/kg, po measured at 7 days post disease onset by immunostaining method (reference value: 58%); type: functional
Mus musculus [8] = experiment: as §3, with “4” for “10”, “ip administered every other day started from postnatal day 40 until” for “po measured at 7 days post”, “end stage” for “onset”, “71%)” for “58%)”; type: functional
Mus musculus [9] = experiment: (§4) Neuroprotective activity in transgenic C57/BL6 mouse amyotrophic lateral sclerosis model harboring SOD1 G93A mutant assessed as decrease in misfolded SOD1 levels in spinal cord at 4 mg/kg, ip administered twice weekly started from postnatal day 40 until disease end stage by immunoprecipitation method relative to control; type: functional; parameters: scale not given: the % may be the effect or the level left
[10] = as §4, with “upregulation of HSP70” for “decrease in misfolded SOD1”, “Western blot” for “immunoprecipitation”; type: functional, organism-based
[11] = as §4, with “upregulation of HSP25” for “decrease in misfolded SOD1”, “Western blot” for “immunoprecipitation”; type: functional, organism-based

## Cc1cc(C)c(OCC(=O)Nc2nc(-c3ccccn3)cs2)c(C)c1
Mus musculus [1]
  Activity: 11%
Mus musculus [2]
  Activity: 16%
Mus musculus [3]
  Activity: 23%

## Cc1cc(C)c(N(C)CC(=O)Nc2nc(-c3ccccn3)c[nH]2)c(C)c1.Cl.Cl.Cl
Mus musculus [4]
  Activity: 14%
Mus musculus [5]
  Activity: 20%

## CCCCC1OC(=O)c2ccccc21 (racemic) [RAC-3-N-BUTYLPHTHALIDE]
Mus musculus [6]
  Activity: 42%

## O=C(/C=C/c1ccc(O)c(O)c1)OCCc1ccccc1 [CAFFEIC ACID PHENETHYL ESTER]
Mus musculus [7]
  Activity: 10%

## N=C(N)N/N=C/c1c(Cl)cccc1Cl [GUANABENZ]
Mus musculus [8]
  Activity: 44%

## CC1=C(CO)C(=O)O[C@@H]([C@@H](C)[C@H]2CC[C@H]3[C@@H]4C[C@H]5O[C@]56[C@@H](O)C=CC(=O)[C@]6(C)[C@H]4CC[C@]23C)C1 [WITHAFERIN A]
Mus musculus [9]
  Activity: 39%
[10]
  fold change (FC): 2.2
[11]
  fold change (FC): 2.6
